Read-outs that look alike come from different tables or passages of the source.
Experiments:
[1] = test system: Kir1.1; design: method as in Yu et al. (2012); details: ref Yu et al. (2012); cited from earlier work
[2] = design: method as in Cox et al., 2000; details: used to treat type II diabetes mellitus; ref Cox et al., 2000; cited from earlier work
[3] = molecular target: T1, Kir6.2/SUR2A (Rattus norvegicus, UniProt P70673); assay: Inside-out patch clamp on HEK293T excised membrane patches, WT Kir6.2/SUR2A; format: cell-based; details: for IC50: inside-out patch, HEK293T; for Hill coefficient (outward): outward current
T1 construct: expressed in transfected cells; host or cells: HEK293T
Procedure: (§1) Inside-out patch clamp electrophysiology was performed as described previously ([Harakalova et al., 2012]). In short, HEK293T cells were cultured on 10 mm glass coverslips and transfected with 0.16 μg of rat pCMV6-Kir6.2, 0.16 μg of rat pCMV6-SUR2A and 0.08 μg of pEGFP1 expression constructs. Measurements were performed using an AxoPatch 200B amplifier controlled by pClamp 9 software (Molecular Devices) at 22°C using a ramp protocol ranging from −100 to +100 mV in 5 s from a holding potential of −40 mV. The sampling rate was 50 kHz, filter frequency was 2 kHz. Bath solution contained 131 mM KCl, 1 mM EGTA, 7.2 mM K2HPO4, 2.8 mM KH2PO4, 1 mM MgCl2, and pH 7.20/KOH. The pipette solution contained 145 mM KCl, 1 mM CaCl2, 1 mM MgCl2, 5 mM HEPES, and pH 7.40/KOH. Pipette resistance was 1.5–3 MΩ. […] All measurements were performed within a timeframe of 8–10 min. Fractional block at −80 and +50 mV was determined by dividing current levels obtained with test compound containing solutions by current levels of control traces recorded in the absence of test compound. Statistics (unpaired Students t-tests (two tailed)) were performed using Kaleidagraph 4.0 software (Synergy Software, Reading, PA, United States).
(§2) Travoprost (MedChemExpress, Monmouth Junction, NJ, United States) was dissolved in DMSO at 10 mM. Test compounds were diluted in bath solution at the indicated concentrations before the start of measurements.

[4] = test system: Kir4.1; design: method as in Yu et al. (2012); details: ref Yu et al. (2012); cited from earlier work
[5] = test system: Kir6.2/SURx (pancreatic and heart) channels; design: method as in Yu et al., 2012; details: ref Yu et al., 2012; cited from earlier work
[6] = test system: vascular Kir6.1/SUR2B; design: method as in Yu et al., 2011; details: ref Yu et al., 2011; cited from earlier work
[7] = molecular target: T2, Kir6.2 C166S/SUR2A (Rattus norvegicus, UniProt P70673, C166S); assay: Inside-out patch clamp, Cantú mutant C166S Kir6.2 with SUR2A; format: cell-based; details: C166S Kir6.2 (homolog of Kir6.1 C176S)/SUR2A, outward current
T2 construct: expressed in transfected cells; host or cells: HEK293T
Procedure: as §1, §2

[8] = molecular target: T3, Kir6.2/SUR2A S1020P (Rattus norvegicus, UniProt P70673); assay: Inside-out patch clamp, Cantú mutant S1020P SUR2A with Kir6.2; format: cell-based; details: S1020P SUR2A/Kir6.2, outward current
T3 construct: expressed in transfected cells; host or cells: HEK293T
Procedure: as §1, §2

[9] = test system: Kir2.1; design: method as in Yu et al. (2012); details: ref Yu et al. (2012); cited from earlier work
[10] = outward current component (+50 mV), mean ± SEM, read-out: IC50 outward

T2 sequence (P70673 whole entry C166S): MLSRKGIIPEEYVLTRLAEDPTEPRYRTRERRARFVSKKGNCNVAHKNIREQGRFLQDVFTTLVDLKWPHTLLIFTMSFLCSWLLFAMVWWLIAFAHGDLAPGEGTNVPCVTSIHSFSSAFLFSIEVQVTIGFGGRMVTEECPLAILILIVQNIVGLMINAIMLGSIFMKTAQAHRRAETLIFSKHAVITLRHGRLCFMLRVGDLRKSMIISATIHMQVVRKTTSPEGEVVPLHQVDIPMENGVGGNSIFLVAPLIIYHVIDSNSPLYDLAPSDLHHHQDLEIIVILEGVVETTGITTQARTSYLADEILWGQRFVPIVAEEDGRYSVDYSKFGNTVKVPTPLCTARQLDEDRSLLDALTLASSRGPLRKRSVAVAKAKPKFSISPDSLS
T2 sequence (Q63563 whole entry partner): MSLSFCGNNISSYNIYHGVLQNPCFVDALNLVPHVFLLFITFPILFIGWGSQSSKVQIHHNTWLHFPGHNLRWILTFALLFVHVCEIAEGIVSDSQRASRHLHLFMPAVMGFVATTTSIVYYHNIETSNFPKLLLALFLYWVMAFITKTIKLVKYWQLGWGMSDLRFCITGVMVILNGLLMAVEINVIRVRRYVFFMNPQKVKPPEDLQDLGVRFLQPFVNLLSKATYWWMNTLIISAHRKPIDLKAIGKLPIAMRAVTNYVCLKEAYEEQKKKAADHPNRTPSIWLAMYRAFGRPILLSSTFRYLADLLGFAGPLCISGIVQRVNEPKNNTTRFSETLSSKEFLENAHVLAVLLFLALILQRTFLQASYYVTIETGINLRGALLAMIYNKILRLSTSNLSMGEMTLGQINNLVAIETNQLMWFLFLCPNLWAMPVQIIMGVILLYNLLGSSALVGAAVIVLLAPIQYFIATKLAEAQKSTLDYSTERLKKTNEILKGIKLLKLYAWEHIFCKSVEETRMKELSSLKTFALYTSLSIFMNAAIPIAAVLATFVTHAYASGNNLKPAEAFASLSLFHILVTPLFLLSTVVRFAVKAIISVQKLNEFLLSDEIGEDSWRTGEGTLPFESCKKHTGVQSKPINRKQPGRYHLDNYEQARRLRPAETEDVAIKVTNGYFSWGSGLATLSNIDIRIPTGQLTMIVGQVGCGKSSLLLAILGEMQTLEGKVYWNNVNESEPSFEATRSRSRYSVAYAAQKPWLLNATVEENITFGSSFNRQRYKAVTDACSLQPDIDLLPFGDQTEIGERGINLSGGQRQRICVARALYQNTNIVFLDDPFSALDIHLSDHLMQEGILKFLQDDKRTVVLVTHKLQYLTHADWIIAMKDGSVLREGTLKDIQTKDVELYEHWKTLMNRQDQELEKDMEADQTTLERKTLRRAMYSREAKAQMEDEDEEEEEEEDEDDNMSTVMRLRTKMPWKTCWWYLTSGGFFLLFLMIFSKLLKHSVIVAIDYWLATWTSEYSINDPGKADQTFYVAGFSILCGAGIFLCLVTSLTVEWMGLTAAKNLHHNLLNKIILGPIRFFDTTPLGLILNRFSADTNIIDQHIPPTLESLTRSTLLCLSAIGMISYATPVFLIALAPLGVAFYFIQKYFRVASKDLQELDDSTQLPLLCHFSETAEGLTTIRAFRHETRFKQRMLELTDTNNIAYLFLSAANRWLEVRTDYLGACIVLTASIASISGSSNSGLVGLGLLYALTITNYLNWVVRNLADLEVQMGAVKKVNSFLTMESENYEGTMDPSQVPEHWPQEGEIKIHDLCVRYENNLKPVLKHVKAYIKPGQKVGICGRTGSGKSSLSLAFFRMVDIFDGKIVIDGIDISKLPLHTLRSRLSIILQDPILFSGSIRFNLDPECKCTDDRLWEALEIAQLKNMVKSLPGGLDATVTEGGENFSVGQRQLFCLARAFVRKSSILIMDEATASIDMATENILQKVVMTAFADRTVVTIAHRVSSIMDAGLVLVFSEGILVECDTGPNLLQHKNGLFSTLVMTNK
T3 sequence (P70673 whole entry, stated change not applied): as the sequence (P70673 whole entry C166S) above, with S166C counted along it
T3 sequence (Q63563 whole entry S1016P partner): as the sequence (Q63563 whole entry partner) above, with S1016P counted along it
T1 sequence (P70673 whole entry): as the sequence (P70673 whole entry C166S) above, with S166C counted along it
T1 sequence (Q63563 whole entry partner): as the sequence (Q63563 whole entry partner) above

Row | IC50 [3, 10] [µM] | IC50 [7] [µM] | IC50 [8] [µM] | Hill coefficient (outward) ([3]; Hill equation fit) | IC50 ([3]; inward current component (-80 mV), read-out: IC50 inward) [µM] | Hill coefficient (inward) ([3]; inward current, Hill equation fit) | Compound | sensitivity of channel to drug [1] | plasma concentrations [2] [nM] | sensitivity of channel to drug [4] | IC50 [5] [µM] | IC50 [6] [µM] | sensitivity of channel to drug [9]
1 | 26 ± 1.49 | 34.9 ± 2.34 | 25.4 ± 4.24 |  |  |  | CN(CCOc1ccc(CC2SC(=O)NC2=O)cc1)c1ccccn1 (centres unmarked) [RSG, 5-[[4-[2-[methyl(pyridin-2-yl)amino]ethoxy]phenyl]methyl]-1,3-thiazolidine-2,4-dione] | insensitive | ~3000 | insensitive | 45 | 10 | insensitive
2 | 22.1 ± 2.47 | 41.2 ± 2.89 | 29.5 ± 3.78 | 0.89 |  |  | CC(C)NCC(O)COc1ccc(CCOCC2CC2)cc1 (centres unmarked) [Betaxolol] |  |  |  |  |  | 
3 | 2.46 ± 0.52 | 14.8 ± 2.16 | 11 ± 1.28 | 0.71 | 2.3 ± 1.26 | 0.65 | CC(C)OC(=O)CCC/C=C\C[C@@H]1[C@@H](/C=C/[C@@H](O)COc2cccc(C(F)(F)F)c2)[C@H](O)C[C@@H]1O [Travoprost] |  |  |  |  |  | 
4 | 7.09 ± 0.45 | 10.4 ± 0.87 | 6.77 ± 0.49 | 0.86 |  |  | CC(NCCc1ccc(O)cc1)C(O)c1ccc(O)cc1 (centres unmarked) [Ritodrine] |  |  |  |  |  | 

Reference: article PMC6543810, “Computational Identification of Novel Kir6 Channel Inhibitors” (Frontiers in Pharmacology, 2019)
